Read-outs that look alike come from different tables or passages of the source. Marks after values point to notes of the source that are not given here.
Experiments:
[1] = molecular target: T1, human recombinant MAO-B (Homo sapiens, UniProt P27338); test: Determination of MAO isoforms activity (Amplex Red, p-tyramine), MAO-B; format: biochemical; conditions: for S.I. Selectivity index hMAO-B = IC50 (hMAO-A)/IC50 (hMAO-B): bounds calculated taking the highest concentration studied (100 μM or 1 mM) as IC50; for IC50: read-out: IC50 hMAO-B
T1 construct: purchased Sigma-Aldrich Química S.A., Alcobendas, Spain; host or cells: insect cells (BTI-TN-5B1-4) infected with recombinant baculovirus
T1 sequence (P27338 1-520): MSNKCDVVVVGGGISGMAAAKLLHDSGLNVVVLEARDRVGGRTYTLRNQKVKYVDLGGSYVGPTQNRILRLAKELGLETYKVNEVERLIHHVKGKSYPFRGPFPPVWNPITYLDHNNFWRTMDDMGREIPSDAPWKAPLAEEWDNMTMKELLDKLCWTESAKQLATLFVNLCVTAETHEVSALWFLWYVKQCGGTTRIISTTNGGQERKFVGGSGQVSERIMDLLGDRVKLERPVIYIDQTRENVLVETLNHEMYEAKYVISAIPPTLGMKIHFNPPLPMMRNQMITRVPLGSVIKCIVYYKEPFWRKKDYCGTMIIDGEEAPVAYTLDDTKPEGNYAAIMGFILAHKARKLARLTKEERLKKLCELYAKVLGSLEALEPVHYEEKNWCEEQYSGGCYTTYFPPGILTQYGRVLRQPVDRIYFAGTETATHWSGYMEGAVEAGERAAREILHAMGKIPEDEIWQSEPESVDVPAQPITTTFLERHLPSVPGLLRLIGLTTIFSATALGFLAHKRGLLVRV

[2] = molecular target: T2, human recombinant MAO-A (Homo sapiens, UniProt P21397); test: Determination of MAO isoforms activity (Amplex Red, p-tyramine), MAO-A; format: biochemical; conditions: read-out: IC50 hMAO-A
T2 construct: purchased Sigma-Aldrich Química S.A., Alcobendas, Spain; host or cells: insect cells (BTI-TN-5B1-4) infected with recombinant baculovirus
T2 sequence (P21397 1-527): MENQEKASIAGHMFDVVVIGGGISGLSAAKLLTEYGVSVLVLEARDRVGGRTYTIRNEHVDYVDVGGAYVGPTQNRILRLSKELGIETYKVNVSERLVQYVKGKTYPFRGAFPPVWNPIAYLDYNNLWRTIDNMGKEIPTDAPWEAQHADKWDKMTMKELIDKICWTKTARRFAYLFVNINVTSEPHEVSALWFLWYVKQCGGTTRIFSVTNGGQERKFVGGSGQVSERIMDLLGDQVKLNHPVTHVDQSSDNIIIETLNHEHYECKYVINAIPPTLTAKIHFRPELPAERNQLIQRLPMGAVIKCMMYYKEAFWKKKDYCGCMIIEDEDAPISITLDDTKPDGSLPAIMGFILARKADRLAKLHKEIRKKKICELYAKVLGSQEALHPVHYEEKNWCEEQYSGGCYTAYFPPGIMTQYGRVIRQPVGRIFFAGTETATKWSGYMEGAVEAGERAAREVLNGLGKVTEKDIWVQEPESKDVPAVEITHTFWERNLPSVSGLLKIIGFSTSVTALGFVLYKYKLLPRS

[3] = human recombinant MAO-B, p-tyramine 1 mM, mean ± spread of 5 experiments

Row | SMILES | S.I. Selectivity index hMAO-B = IC50 (hMAO-A)/IC50 (hMAO-B) [1] | IC50 [1, 3] [µM] | IC50 [2] [µM] | IC50 [1] [µM]
1 | O=c1c(CSC(=S)N2CCCC2)ccnn1Cc1ccccc1 [IIIc3, 1-benzyl-6-oxo-1,6-dihydropyridazin-5-ylmethyl Pyrrolidin-1-ylcarbodithioate] | >2.9^b | 34 ± 2.26 | > 100 | 
2 | O=c1c(CSC(=S)N2CCOCC2)ccnn1Cc1ccccc1 [IIIc5, 1-benzyl-6-oxo-1,6-dihydropyridazin-5-ylmethyl Morpholin-4-ylcarbodithioate] | >4.2^b | 24.1 ± 1.6 | > 100 | 
3 | O=C(c1ccccc1)N1CCN(C(=S)SCc2ccnn(Cc3ccccc3)c2=O)CC1 [IIIc11, 1-benzyl-6-oxo-1,6-dihydropyridazin-5-ylmethyl 4-benzoylpiperazin-1-ylcarbodithioate] |  |  | > 100 | > 100
4 | CCN(CC)C(=S)SCc1cnn(Cc2ccccc2)c(=O)c1 [IIc2, 1-benzyl-6-oxo-1,6-dihydropyridazin-4-ylmethyl N,N-diethyldithiocarbamate] | >2.3^b | 44.2 ± 2.95 | > 100 | 
5 | O=c1cc(CSC(=S)N2CCCC2)cnn1Cc1ccccc1 [IIc3, 1-benzyl-6-oxo-1,6-dihydropyridazin-4-ylmethyl Pyrrolidin-1-ylcarbodithioate] | 10.3 | 9.68 ± 0.65 |  | 
6 | O=c1cc(CSC(=S)N2CCCCC2)cnn1Cc1ccccc1 [IIc4, 1-benzyl-6-oxo-1,6-dihydropyridazin-4-ylmethyl Piperidin-1-ylcarbodithioate] | >15^b | 6.71 ± 0.45 | > 100 | 
7 | O=c1cc(CSC(=S)N2CCOCC2)cnn1Cc1ccccc1 [IIc5, 1-benzyl-6-oxo-1,6-dihydropyridazin-4-ylmethyl Morpholin-4-ylcarbodithioate] |  |  | > 100 | 
8 | O=C(c1ccccc1)N1CCN(C(=S)SCc2cnn(Cc3ccccc3)c(=O)c2)CC1 [IIc11, 1-benzyl-6-oxo-1,6-dihydropyridazin-4-ylmethyl 4-benzoylpiperazin-1-ylcarbodithioate] |  |  | > 100 | > 100
9 | Cn1nc(CCSC(=S)N2CCCCC2)ccc1=O [Ia15, 2-(1-methyl-6-oxo-1,6-dihydropyridazin-3-yl)ethyl Piperidin-1-ylcarbodithioate] | >8.4^b | 11.9 ± 0.53 | > 100 | 
10 | Cn1nc(CCCSC(=S)N2CCCC2)ccc1=O [Ia25, 3-(1-methyl-6-oxo-1,6-dihydropyridazin-3-yl)propyl Pyrrolidin-1-ylcarbodithioate] | >1.5^b | 66.5 ± 4.43 | > 100 | 
11 | Cc1cc(=O)n(C)nc1CSC(=S)N1CCCC1 [Id3, 1,4-dimethyl-6-oxo-1,6-dihydropyridazin-3-ylmethyl Pyrrolidin-1-ylcarbodithioate] |  |  | > 100 | > 1000
12 | Cc1cc(=O)n(C)nc1CSC(=S)N1CCCCC1 [Id4, 1,4-dimethyl-6-oxo-1,6-dihydropyridazin-3-ylmethyl Piperidin-1-ylcarbodithioate] | 13.4 | 7.48 ± 0.34 |  | 
13 | Cc1cc(=O)n(C)nc1CSC(=S)N1CCOCC1 [Id5, 1,4-dimethyl-6-oxo-1,6-dihydropyridazin-3-ylmethyl morpholin-4-ylcarbodithioate] | 2.6 | 38.6 ± 1.74 |  | 
14 | Cc1cc(=O)n(C)nc1CSC(=S)N1CCN(C(=O)c2ccccc2)CC1 [Id11, 1,4-dimethyl-6-oxo-1,6-dihydropyridazin-3-ylmethyl 4-benzoylpiperazin-1-ylcarbodithioate] | 2.2 | 44.5 ± 2 |  | 

Reference: US10253000B2, “Pyridazin-3(2H)-one derivatives as monoamine oxidase selective isoform B inhibitors” (UNIVERSIDADE DE VIGO, priority 2014, dated 2019)
